# Assay results from patent publication US20260297083A1, “SUBSTITUTED ACETYLENE COMPOUND DERIVATIVES AND THEIR PHARMACEUTICAL USE” (AVELOS THERAPEUTICS INC., priority 2023, published 2026).
# System: DLD-1 BRCA2(−/−) Cell
# Assay: Cell viability assay (Resazurin) in DLD1-BRCA2 cells
# Type: cell-based
# Settings: Homo sapiens, DLD-1, 336 h, 14 days, 1,500 cells/well, final DMSO 1%
# Experimental: DLD1-BRCA2 KG (Horizon Discovery, Cat #HD 105-007) cells and DLD1-parental cells were maintained in culture media (RPMI-1640 including 2 mM L-glutamin and 25 mM sodium bicarbonate, supplemented with 10% FBS), at 37° C. in a humidified atmosphere with 5% CO2. Cells were seeded at the final concentration of 1,500 cells/well (DLD1-BRCA2 KG) and 600 cells/well (DLD1-parental) in a 96-well plate. Four hours later, test compounds were added (the final concentration of DMSO was 1%) to the cells and media were replaced every 3-4 days for 14 days. To measure viability, cells were incubated in culture media supplemented with 0.1 mg/ml of Resazurin (Merck, Cat #R7017) for 4 hours. The fluorescence was measured at Ex/Em=560 nm/590 nm using EnSight multimode plate reader (Perkin Elmer). Data analysis and IC50 calculation was done using GraphPad Prism (Version 10.0.2).
row,IC50,SMILES
1,< 1000 nM,"Cc1cc(C(F)(F)F)cc(N2[C@H](C(=O)N(CC#Cc3cnc(N)cn3)c3ccc(F)c(C)c3F)CCS2(=O)=O)n1 [Example 17, (S)—N-(3-(5-aminopyrazin-2-yl)prop-2-yn-1-yl)-N-(2,4-difluoro-3-methylphenyl)-2-(6-methyl-4-(trifluoromethyl)pyridin-2-yl)isothiazolidine-3-carboxamide 1,1-dioxide]"
2,< 1000 nM,"Cc1cc(C(F)(F)F)cc(N2[C@H](C(=O)N(CC#Cc3ccc(N)nn3)c3ccc(F)c(C)c3)CCS2(=O)=O)n1 [Example 18, (S)-N-(3-(6-aminopyridazin-3-yl)prop-2-yn-1-yl)-N-(4-fluoro-3-methylphenyl)-2-(6-methyl-4-(trifluoromethyl)pyridin-2-yl)isothiazolidine-3-carboxamide 1,1-dioxide]"
3,< 1000 nM,Cc1cc(C(F)(F)F)cc(N2[C@H](C(=O)N(CC#Cc3ccc(NC(C)C)nn3)c3ccc(F)c(C)c3)CCS2(=O)=O)n1 [Example 20]
4,< 1000 nM,"Cc1cc(C(F)(F)F)cc(N2[C@H](C(=O)N(CC#Cc3ccc(NC(C)C)nn3)c3ccc(F)c(C)c3F)CCS2(=O)=O)n1 [Example 21, (S)-N-(2,4-difluoro-3-methylphenyl)-N-(3-(6-(isopropylamino)pyridazin-3-yl)prop-2-yn-1-yl)-2-(6-methyl-4-(trifluoromethyl)pyridin-2-carboxamide 1,1-dioxideyl)isothiazolidine-3-carboxamide 1,1-dioxide]"
5,1100 to 5000 nM,"CC(=O)Nc1ccc(C#CCN(C(=O)[C@@H]2CCS(=O)(=O)N2c2cc(C(F)(F)F)cc(C)n2)c2ccc(F)c(C)c2)nn1 [Example 22, (S)-N-(3-(6-acetamidopyridazin-3-yl)prop-2-yn-1-yl)-N-(4-fluoro-3-methylphenyl)-2-(6-methyl-4-(trifluoromethyl)pyridin-2-yl)isothiazolidine-3-carboxamide 1,1-dioxide]"
6,1100 to 5000 nM,"Cc1cc(C(F)(F)F)cc(N2[C@H](C(=O)N(CC#Cc3ccc(N4CCOCC4)nn3)c3ccc(F)c(C)c3)CCS2(=O)=O)n1 [Example 23, (S)-N-(4-fluoro-3-methylphenyl)-2-(6-methyl-4-(trifluoromethyl)pyridin-2-yl)-N-(3-(6-morpholinopyridazin-3-yl)prop-2-yn-1-yl)isothiazolidine-3-carboxamide 1,1-dioxide]"
7,< 1000 nM,"CCN1CCN(c2ccc(C#CCN(C(=O)[C@@H]3CCS(=O)(=O)N3c3cc(C(F)(F)F)cc(C)n3)c3ccc(F)c(C)c3)nn2)CC1 [Example 24, (S)-N-(3-(6-(4-ethylpiperazin-1-yl)pyridazin-3-yl)prop-2-yn-1-yl)-N-(4-fluoro-3-methylphenyl)-2-(6-methyl-4-(trifluoromethyl)pyridin-2-yl)isothiazolidine-3-carboxamide 1,1-dioxide]"
8,1100 to 5000 nM,"CCN(CC)c1ccc(C#CCN(C(=O)[C@@H]2CCS(=O)(=O)N2c2cc(C(F)(F)F)cc(C)n2)c2ccc(F)c(C)c2)nn1 [Example 25, (S)-N-(3-(6-(diethylamino)pyridazin-3-yl)prop-2-yn-1-yl)-N-(4-fluoro-3-methylphenyl)-2-(6-methyl-4-(trifluoromethyl)pyridin-2-yl)isothiazolidine-3-carboxamide 1,1-dioxide]"
9,< 1000 nM,"Cc1cc(C(F)(F)F)cc(N2[C@H](C(=O)N(CC#Cc3ccc(=O)[nH]n3)c3ccc(F)c(C)c3)CCS2(=O)=O)n1 [Example 26, (S)-N-(4-fluoro-3-methylphenyl)-2-(6-methyl-4-(trifluoromethyl)pyridin-2-yl)-N-(3-(6-oxo-1,6-dihydropyridazin-3-yl)prop-2-yn-1-yl)isothiazolidine-3-carboxamide 1,1-dioxide]"
10,< 1000 nM,"COc1ccc(C#CCN(C(=O)[C@@H]2CCS(=O)(=O)N2c2cc(C(F)(F)F)cc(C)n2)c2ccc(F)c(C)c2)nn1 [Example 27, (S)-N-(4-fluoro-3-methylphenyl)-N-(3-(6-methoxypyridazin-3-yl)prop-2-yn-1-yl)-2-(6-methyl-4-(trifluoromethyl)pyridin-2-yl)isothiazolidine-3-carboxamide 1,1-dioxide]"
11,< 1000 nM,"Cc1cc(C(F)(F)F)cc(N2[C@H](C(=O)N(CC#Cc3ccc(OC(F)F)nn3)c3ccc(F)c(C)c3)CCS2(=O)=O)n1 [Example 28, (S)-N-(3-(6-(difluoromethoxy)pyridazin-3-yl)prop-2-yn-1-yl)-N-(4-fluoro-3-methylphenyl)-2-(6-methyl-4-(trifluoromethyl)pyridin-2-yl)isothiazolidine-3-carboxamide 1,1-dioxide]"
12,< 1000 nM,Cc1cc(C(F)(F)F)cc(N2[C@H](C(=O)N(CC#Cc3ccc(C(N)=O)nn3)c3ccc(F)c(C)c3)CCS2(=O)=O)n1 [Example 29]
13,1100 to 5000 nM,"Cc1cc(C(F)(F)F)cc(N2[C@H](C(=O)N(CC#Cc3cnc(N)cn3)c3ccc(F)c(C)c3)CCS2(=O)=O)n1 [Example 30, (S)-N-(3-(5-aminopyrazin-2-yl)prop-2-yn-1-yl)-N-(4-fluoro-3-methylphenyl)-2-(6-methyl-4-(trifluoromethyl)pyridin-2-yl)isothiazolidine-3-carboxamide 1,1-dioxide]"
14,> 5100 nM,"Cc1cc(C(F)(F)F)cc(N2[C@@H](C(=O)N(CC#Cc3cnc(N)cn3)c3ccc(F)c(C)c3F)CCS2(=O)=O)n1 [Example 31, (R)-N-(3-(5-aminopyrazin-2-yl)prop-2-yn-1-yl)-N-(2,4-diffuoro-3-methylphenyl)-2-(6-methyl-4-(trifluoromethyl)pyridin-2-yl)isothiazolidine-3-carboxamide 1,1-dioxide]"
15,< 1000 nM,"Cc1ccc(F)c(N(CC#Cc2cnc(N)cn2)C(=O)[C@@H]2CCS(=O)(=O)N2c2cc(C(F)(F)F)cc(C)n2)c1 [Example 33, (S)-N-(3-(5-aminopyrazin-2-yl)prop-2-yn-1-yl)-N-(2-fluoro-5-methylphenyl)-2-(6-methyl-4-(trifluoromethyl)pyridin-2-yl)isothiazolidine-3-carboxamide 1,1-dioxide]"
16,1100 to 5000 nM,"CC(=O)Nc1cnc(C#CCN(C(=O)[C@@H]2CCS(=O)(=O)N2c2cc(C(F)(F)F)cc(C)n2)c2ccc(F)c(C)c2)cn1 [Example 34, (S)-N-(3-(5-acetamidopyrazin-2-yl)prop-2-yn-1-yl)-N-(4-fluoro-3-methylphenyl)-2-(6-methyl-4-(trifluoromethyl)pyridin-2-yl)isothiazolidine-3-carboxamide 1,1-dioxide]"
17,1100 to 5000 nM,"Cc1cc(C(F)(F)F)cc(N2[C@H](C(=O)N(CC#Cc3cnc(NC(N)=O)cn3)c3ccc(F)c(C)c3)CCS2(=O)=O)n1 [Example 35, (S)-N-(4-fluoro-3-methylphenyl)-2-(6-methyl-4-(trifluoromethyl)pyridin-2-yl)-N-(3-(5-ureidopyrazin-2-yl)prop-2-yn-1-yl)isothiazolidine-3-carboxamide 1,1-dioxide]"
18,< 1000 nM,"Cc1cc(C(F)(F)F)cc(N2[C@H](C(=O)N(CC#Cc3cnc(NC(C)C)cn3)c3ccc(F)c(C)c3)CCS2(=O)=O)n1 [Example 36, (S)-N-(4-fluoro-3-methylphenyl)-N-(3-(5-(isopropylamino)pyrazin-2-yl)prop-2-yn-1-yl)-2-(6-methyl-4-(trifluoromethyl)pyridin-2-yl)isothiazolidine-3-carboxamide 1,1-dioxide]"
19,1100 to 5000 nM,"Cc1ccc(F)c(N(CC#Cc2cnc(NC(C)C)cn2)C(=O)[C@@H]2CCS(=O)(=O)N2c2cc(C(F)(F)F)cc(C)n2)c1 [Example 37, (S)-N-(2-fluoro-5-methylphenyl)-N-(3-(5-(isopropylamino)pyrazin-2-yl)prop-2-yn-1-yl)-2-(6-methyl-4-(trifluoromethyl)pyridin-2-yl)isothiazolidine-3-carboxamide 1,1-dioxide]"
20,1100 to 5000 nM,"Cc1cc(C(F)(F)F)cc(N2[C@H](C(=O)N(CC#Cc3cnc(N4CC5(COC5)C4)cn3)c3ccc(F)c(C)c3)CCS2(=O)=O)n1 [Example 38, (S)-N-(3-(5-(2-oxa-6-azaspiro[3.3]heptan-6-yl)pyrazin-2-yl)prop-2-yn-1-yl)-N-(4-fluoro-3-methylphenyl)-2-(6-methyl-4-(trifluoromethyl)pyridin-2-yl)isothiazolidine-3-carboxamide 1,1-dioxide]"
21,< 1000 nM,"Cc1cc(C(F)(F)F)cc(N2[C@H](C(=O)N(CC#Cc3cnc(N4CCOCC4)cn3)c3ccc(F)c(C)c3)CCS2(=O)=O)n1 [Example 39, (S)-N-(4-fluoro-3-methylphenyl)-2-(6-methyl-4-(trifluoromethyl)pyridin-2-yl)-N-(3-(5-orpholinopyrazin-2-yl)prop-2-yn-1-yl)isothiazolidine-3-carboxamide 1,1-dioxide]"
22,1100 to 5000 nM,"Cc1ccc(F)c(N(CC#Cc2cnc(N3CCOCC3)cn2)C(=O)[C@@H]2CCS(=O)(=O)N2c2cc(C(F)(F)F)cc(C)n2)c1 [Example 40, (S)-N-(2-fluoro-5-methylphenyl)-2-(6-methyl-4-(trifluoromethyl)pyridin-2-yl)-N-(3-(5-morpholinopyrazin-2-yl)prop-2-yn-1-yl)isothiazolidine-3-carboxamide 1,1-dioxide]"
23,> 5100 nM,"Cc1ccc(F)c(N(CC#Cc2cnc(N3CCOCC3)cn2)C(=O)[C@H]2CCS(=O)(=O)N2c2cc(C(F)(F)F)cc(C)n2)c1 [Example 41, (R)-N-(2-fluoro-5-methylphenyl)-2-(6-methyl-4-(trifluoromethyl)pyridin-2-yl)-N-(3-(5-morpholinopyrazin-2-yl)prop-2-yn-1-yl) isothiazolidine-3-carboxamide 1,1-dioxide]"
